Laboratory results published in ChEMBL document CHEMBL1201862, “PubChem BioAssay data set” (2004).
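A five-concentration, 48-hour dose response in 96-well plates underlies each endpoint, interpolated linearly between surrounding concentrations. GI50: concentration for 50% inhibition of growth.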 Activity calls are given as the source filed them. No stated cut-off is given here; in the data, active = GI50 up to about 1.1 µM and inactive = higher.

How the values were obtained:
Assay in all cases: growth of human tumour cells (NCI), 48 h
HCC 2998 = test system: HCC 2998
NCI-H460 = test system: NCI-H460
COLO 205 = test system: COLO 205
UACC-62 = test system: UACC-62
SK-MEL-5 = test system: SK-MEL-5
SF-539 = test system: SF-539
PC-3 = test system: PC-3
ACHN = test system: ACHN
LOX IMVI = test system: LOX IMVI
HT-29 = test system: HT-29
MDA-N = test system: MDA-N
OVCAR-4 = test system: OVCAR-4
Malme-3M = test system: Malme-3M
UACC-257 = test system: UACC-257
MDA-MB-231 = test system: MDA-MB-231
MOLT-4 = test system: MOLT-4
786-0 = test system: 786-0
DU-145 = test system: DU-145
SN12C = test system: SN12C
A498 = test system: A498
OVCAR-5 = test system: OVCAR-5
UO-31 = test system: UO-31
MCF7 = test system: MCF7
A549 = test system: A549
U-251 = test system: U-251
CAKI-1 = test system: CAKI-1
KM12 = test system: KM12
SK-MEL-28 = test system: SK-MEL-28
SW-620 = test system: SW-620
SK-OV-3 = test system: SK-OV-3
RPMI-8226 = test system: RPMI-8226
Hs-578T = test system: Hs-578T
HCT-116 = test system: HCT-116
OVCAR-3 = test system: OVCAR-3
HOP-62 = test system: HOP-62
NCI-H226 = test system: NCI-H226
NCI/ADR-RES = test system: NCI/ADR-RES
T47D = test system: T47D
M14 = test system: M14
EKVX = test system: EKVX
SR = test system: SR
TK-10 = test system: TK-10
SK-MEL-2 = test system: SK-MEL-2
MDA-MB-435 = test system: MDA-MB-435
HCT-15 = test system: HCT-15
OVCAR-8 = test system: OVCAR-8
NCI-H522 = test system: NCI-H522
IGROV-1 = test system: IGROV-1
SNB-19 = test system: SNB-19
SF-268 = test system: SF-268
BT-549 = test system: BT-549
K562 = test system: K562
SNB-75 = test system: SNB-75
SF-295 = test system: SF-295
NCI-H23 = test system: NCI-H23
HOP-92 = test system: HOP-92
RXF 393 = test system: RXF 393
CCRF-CEM = test system: CCRF-CEM
HL-60 = test system: HL-60

Measured: GI50

COC(=O)c1ccc2[nH]c3c(c2c1)CC(=O)Nc1ccccc1-3
active: OVCAR-4 0.673 µM | UO-31 0.0278 µM
> 100 µM: HCT-15
inactive: HCC 2998 > 100 µM | NCI-H460 > 100 µM | COLO 205 > 100 µM | UACC-62 > 100 µM | SK-MEL-5 > 100 µM | SF-539 2.94 µM | PC-3 > 100 µM | ACHN > 100 µM | LOX IMVI > 100 µM | HT-29 > 100 µM | MDA-N > 100 µM | Malme-3M > 100 µM | UACC-257 > 100 µM | MDA-MB-231 12.4 µM | MOLT-4 1.31 µM | 786-0 > 100 µM | DU-145 45.7 µM | SN12C > 100 µM | A498 > 100 µM | OVCAR-5 60.3 µM | MCF7 > 100 µM | A549 > 100 µM | U-251 6.68 µM | CAKI-1 56 µM | KM12 > 100 µM | SK-MEL-28 > 100 µM | SW-620 > 100 µM | SK-OV-3 41.7 µM | RPMI-8226 > 100 µM | Hs-578T > 100 µM | HCT-116 > 100 µM | OVCAR-3 > 100 µM | HOP-62 24.3 µM | NCI-H226 7.31 µM | NCI/ADR-RES > 100 µM | T47D > 100 µM | M14 35.8 µM | EKVX 26.2 µM | SR 7.28 µM | TK-10 83.9 µM | SK-MEL-2 > 100 µM | MDA-MB-435 > 100 µM | OVCAR-8 5.9 µM | NCI-H522 > 100 µM | IGROV-1 44.2 µM | SNB-19 > 100 µM | SF-268 9.18 µM | BT-549 1.86 µM | K562 27.4 µM | SNB-75 2.3 µM | SF-295 > 100 µM

COC(=O)[C@@H]1CO[C@H](C(C)(C)C)N1C(=O)N1C=CC(=O)C[C@H]1C
inactive: COLO 205 > 100 µM | UACC-62 > 100 µM | SK-MEL-5 > 100 µM | PC-3 > 100 µM | ACHN > 100 µM | LOX IMVI > 100 µM | NCI-H23 > 100 µM | HT-29 > 100 µM | MDA-N > 100 µM | Malme-3M > 100 µM | UACC-257 > 100 µM | HOP-92 > 100 µM | MDA-MB-231 > 100 µM | MOLT-4 > 10 µM | 786-0 > 100 µM | DU-145 > 100 µM | SN12C > 100 µM | A498 > 100 µM | OVCAR-5 > 100 µM | UO-31 > 100 µM | RXF 393 > 100 µM | MCF7 > 100 µM | A549 > 100 µM | U-251 > 100 µM | CAKI-1 > 100 µM | KM12 > 100 µM | CCRF-CEM > 100 µM | SK-MEL-28 > 100 µM | SW-620 > 100 µM | SK-OV-3 > 100 µM | RPMI-8226 > 100 µM | Hs-578T > 100 µM | HCT-116 > 100 µM | OVCAR-3 > 100 µM | HOP-62 > 100 µM | NCI-H226 > 100 µM | NCI/ADR-RES > 100 µM | T47D > 100 µM | M14 > 100 µM | EKVX > 100 µM | SR > 100 µM | TK-10 > 100 µM | SK-MEL-2 > 100 µM | MDA-MB-435 > 100 µM | HL-60 > 100 µM | OVCAR-8 > 100 µM | NCI-H522 > 100 µM | IGROV-1 > 100 µM | SF-268 > 100 µM | BT-549 > 100 µM | K562 > 100 µM | SNB-75 > 100 µM | SF-295 > 100 µM
